In the case of `CNC(=O)Oc1cc(C)c(NC(=O)C(F)(F)Cl)cc1C`, the melting point is reported as 187 to 188 °C. `CNC(=O)Nc1ccc2c(c1)OC(C)(CCl)O2` (stereo not given) showed a melting point of 156 °C. `CC(=O)NC(C)C(C)n1ncn(-c2ccc(N3CCN(c4ccc(O)cc4)CC3)cc2)c1=O` (stereo not given) showed a melting point of 264 °C. Molecule `Cc1ccc(C)c(S(=O)(=O)Nc2onc(C)c2Br)c1` has a melting point of 102 to 104 °C. For `CN(C)CCCN1N=C2C(=Cc3ccccc3)CS(=O)(=O)CC2C1c1ccccc1` (stereo not given), the melting point was 127 to 129 °C. Molecule `CCCN1CC[C@@H]2CC(=O)c3cc(F)ccc3[C@@H]2C1` (relative stereo) has a melting point of over 220 °C. For `OCc1ccc(-c2cc3c(NCc4cccc(Cl)c4)ncnc3[nH]2)cc1`, the melting point was 296 to 298 °C. Work on `COC(CNC(=O)CN1C(=O)C(C)=C(C)C1=O)OC` yielded a melting point of 99.4 to 99.9 °C. `COc1cccc2c1[nH]c(=O)n2C(=O)Oc1ccccc1` showed a melting point of 204 to 205 °C. Work on `CC1(C)Oc2ccc(-c3nnnn3CCCC(=O)O)cc2[C@@H](Oc2ccc(O)nn2)[C@]1(C)O` yielded a melting point of 116 to 126 °C. For `CCNC(=S)NNC(=O)C(F)(F)F`, the melting point was 170 °C. With `COC(=O)c1c(N)ncn1C(c1ccccc1)c1ccccc1` the melting point was 199 to 201 °C. Molecule `Cc1noc(C2CCCCC2=O)n1` (stereo not given) has a melting point of 74 to 76 °C. `Cc1cccc(C(=O)NO)c1N(C)S(=O)(=O)c1ccc(OCCCNC(=O)c2ccc3c(c2)OCO3)cc1` gave a melting point of 102 to 112 °C. For `NC(=Nc1ccc(N2CCN(C(=O)NCCCCC3CCSS3)CC2)cc1)c1cccs1` (stereo not given), the melting point was 201 to 202 °C. `COc1cc(C2=NN(c3ccccc3)C(=O)C2)cc([N+](=O)[O-])c1OC` showed a melting point of 190 to 192 °C. Molecule `CON=C(Nc1nc(OC)nc(OC)n1)NS(=O)(=O)c1ccccc1-c1ccccc1` has a melting point of 189 to 190 °C. In the case of `COC(=O)CCCCc1cc2nc(Cl)ccc2n1S(=O)(=O)c1cc(C)cc(C)c1`, the melting point is reported as 126 °C. `C=C(C)C(=O)Nc1cccc(OC(=O)Nc2cccc3ccccc23)c1` gave a melting point of 195 to 196 °C. For `CC(C(O)C=Cc1ccc(Cl)cc1)n1cncn1` (stereo not given), the melting point was 117 to 118 °C. For `CC(C)(C)OC(=O)C1CCC2(CCn3c(cc4ccccc43)C2)C1=O` (stereo not given), the melting point was 129 to 131 °C. Work on `CCCCn1cc(N)c(=O)c2cnc(-c3ccncc3)nc21` yielded a melting point of 195 to 196 °C. `CC(C)COc1ccc(-n2ncc(C(=O)O)c2Cl)cc1C#N` gave a melting point of 216 to 218 °C. With `CS(=O)c1ccc(Oc2ccc([N+](=O)[O-])cc2C#N)cc1` (stereo not given) the melting point was 159 to 160 °C. `CNC1CN(c2nc3c(cc2F)c(=O)c(C(=O)O)cn3C2CC2)C1` gave a melting point of 206 to 212 °C. Work on `CCn1c(=S)c2[nH]c(C(C)C)nc2n(CC)c1=O` yielded a melting point of 168 to 170 °C. `Cc1nc2c(Cl)cc(F)c(-n3c(=O)cc(C(F)(F)F)n(C)c3=O)c2s1` gave a melting point of 83 to 85 °C. `CC(C)(C)c1cc(Nc2ccccc2C#N)cc(C(C)(C)C)c1O` showed a melting point of 172 °C. Work on `CC(=O)OCc1nc2nccnc2c(=O)[nH]1` yielded a melting point of 210 to 212 °C. With `CCOC(=O)C1=C(COCC2(C)CO2)NC(C)=C(C(=O)OC)C1c1cccc(Cl)c1Cl` (stereo not given) the melting point was 107 to 112 °C. Work on `CC(=O)OCCCCN(C)CCN(C)C(=O)[C@@H]1CCCN1S(=O)(=O)c1ccc(Cl)c(COc2cccc3c(-n4ccnc4)cc(C)nc23)c1Cl` yielded a melting point of 76 °C. Molecule `COc1ccc(-c2cc(F)ccc2C#N)cc1` has a melting point of 145 to 147 °C. `Cn1ccnc1Sc1ccc(Nc2c(C#N)cnc3cc(-c4ccc(CN5CCOCC5)nc4)ccc23)cc1Cl` showed a melting point of 233 to 235 °C. `CCOC(=O)c1c(CN2CCOCC2)nc2cc(OCC)c(OCC)cc2c1-c1ccc(OC)c(OC)c1` showed a melting point of 147 to 148 °C. `COC(=O)c1ccc2cc(CCCCCc3cc4ccc(C(=O)OC)cc4o3)oc2c1` gave a melting point of 83 to 85 °C. `CCN(CC)CCOC1c2ccccc2C(=O)N1c1ccccc1` (stereo not given) gave a melting point of 146 to 147 °C. `CCCCCCCCCCCC[C@]1(C)OO[C@@H]2C[C@H]1CC(=O)[C@@H]2C` showed a melting point of 35 °C. For `CCOCc1nc2c(N)nc3cc(Br)ccc3c2n1CC1CCCCN1C(=O)OC(C)(C)C` (stereo not given), the melting point was 190 to 192 °C. For `CN1CCCCC1CCc1ccccc1NS(C)(=O)=O` (stereo not given), the melting point was 91.5 to 93.5 °C. `CCOC(=O)CCCCCn1c(C(=O)O)cc2ccccc21` showed a melting point of 62 °C. For `COC(=O)c1cc(C(=O)NCCCCN2CCC(c3ccc4c(c3OC)CCCC4)CC2)ccc1-c1ccc(C(F)(F)F)cc1`, the melting point was 132 °C. Molecule `Cn1cc(C2(c3c4n(c5ccccc35)CCCCC4)CC(=O)OC2=O)c2ccccc21` (stereo not given) has a melting point of 257 to 259 °C. Work on `CCOC(=O)C1=C(COCc2cccnc2)NC(COCc2cccnc2)=C(C(=O)OCC)C1c1cccc([N+](=O)[O-])c1` yielded a melting point of 169 to 171 °C. With `COc1ccc2[nH]c3c(c2c1)CCSCCC3` the melting point was 122 to 124 °C. Work on `COc1ncncc1[N+](=O)[O-]` yielded a melting point of 193 to 195 °C. `Cc1ccccc1C(=O)Nc1ccc(C(=O)N2CCCC(OCC(=O)N3CCSCC3)c3ccccc32)cc1` (stereo not given) showed a melting point of 235 to 237 °C. Molecule `CN=c1[nH]c(-c2cc(C)c(OCCCc3cc(C)no3)c(C)c2)no1` has a melting point of 126 to 127 °C. In the case of `CCOC(=O)C(=O)Nc1ccc2c(c1)CC(=O)N2`, the melting point is reported as 235 to 237 °C. Work on `O=C(C=Cc1ccncc1)c1cccc(C(F)(F)F)c1` yielded a melting point of 89 to 90 °C. Molecule `CCCn1c(=O)c2[nH]c(-c3cc(C)n(CC(=O)Nc4ccc(C)cc4)n3)nc2n(CCC)c1=O` has a melting point of over 300 °C. For `CC1(C)C(=O)Oc2ccc3ccc(C=O)cc3c21`, the melting point was 135 to 137 °C. `Clc1ccc(NC2CCN(Cc3ccccc3)CC2)nn1` gave a melting point of 208 to 209 °C. Molecule `CCOc1cc(C2=NNC(=O)[C@H]3CC=CC[C@@H]23)ccc1OC` (relative stereo) has a melting point of 163 to 166 °C. `Cc1c(C#N)c(N)n(-c2ccccc2Br)c1C` showed a melting point of 233 to 235 °C. `Cc1cc(N)ccc1-c1ccccc1CO` gave a melting point of 108 to 112 °C. In the case of `O=C(NCCN1CCC2(CC1)C(=O)NCN2c1ccccc1)c1ccc(F)cc1[N+](=O)[O-]`, the melting point is reported as 160 °C. In the case of `CCc1ccc(C(C)(C)C)c(O)c1C(=O)Nc1ccc(S(=O)(=O)C(F)(F)F)cc1Cl`, the melting point is reported as 126 to 127 °C. For `CCCCC(O)CN1CCC2(CC1)CSC1=C(O2)c2ccccc2C(=O)C1=O` (stereo not given), the melting point was 160 to 163 °C. `COC(=O)C1=C(C)NC(C)=C(C(=O)OCCN2CCN(C(c3ccccc3)c3ccccc3)CC2)C1c1ccccc1Cl` (stereo not given) gave a melting point of 81 to 83 °C. `CCOC(=O)c1cnn(-c2ccc(OC)c(C#N)c2)c1` showed a melting point of 192 to 193 °C. `O=C(/C=C/c1ccccc1)Nc1cccc(F)c1` gave a melting point of 110 °C. `Cc1nc(Cn2nnnc2-c2cccc(Cl)c2Cl)cs1` showed a melting point of 156 to 158 °C. For `c1ccc(C(c2ccccc2)N2CCN(Cc3cscn3)CC2)cc1`, the melting point was 114 to 116 °C. `C(=NNc1ccccc1)c1cccnc1` gave a melting point of 156 °C. `Cc1ccc(Nc2ncccc2N)c(C)c1[N+](=O)[O-]` gave a melting point of 173 to 175 °C. `CCCCC(C)OC(=O)c1ccccc1S(=O)(=O)NC(=O)Nc1nc(C)nc(OC)n1` (stereo not given) showed a melting point of 125 to 130 °C. Work on `Cc1ccc2c(n1)C(=O)N(c1c(Cl)ccc(C)c1C#N)C2=O` yielded a melting point of 173 to 176 °C. With `CC1(C)CCC(C)(C)c2cc(C(C(N)=O)C(=O)Nc3ccc(C(=O)O)cc3)ccc21` (stereo not given) the melting point was 112 to 113 °C. With `COC(=O)c1c(C(=O)OC)c(-c2cc(OC)c(OC)c(OC)c2)c2c(OC)c(OC)c(OC)cc2c1O` the melting point was 165 to 167 °C. `C(=C\c1nc(COc2ccc(CCCCn3cnc4ccccc43)cc2)co1)/c1ccccc1` gave a melting point of 148 to 149 °C.
